The values below come from ChEMBL document CHEMBL4732094, “Synthesis of some new benzoxazole derivatives and investigation of their anticancer activities” (Eur J Med Chem, 2021).

SMILES strings stand for the structures.

The subject of one data set is HepG2. In words: Cytotoxicity against human HepG2 cells assessed as cell viability measured after 24 hrs by MTT assay. The class given is functional, cell-based. The conditions noted are these: HepG2, 24 h. For orientation: Tetrazolium dyes change colour on reduction, which living cells bring about.
The subject of the next data set is A549. As to the kind of experiment: Cytotoxicity against human A549 cells assessed as cell viability measured after 24 hrs by MTT assay. The conditions noted are these: A549, 24 h. The class given is functional, cell-based.
The test system of the next data set is MCF7. As to the kind of experiment: Cytotoxicity against human MCF7 cells assessed as cell viability measured after 24 hrs by MTT assay. The class given is functional, cell-based. The conditions noted are these: MCF7, 24 h.
Another data set deals with C6. As to the kind of experiment: Cytotoxicity against rat C6 cells assessed as cell viability measured after 24 hrs by MTT assay. The class given is functional, cell-based. The conditions noted are these: C6, 24 h.
A short description of data set [1]: Selectivity index, ratio of IC50 for cytotoxicity against mouse NIH3T3 cells to IC50 for cytotoxicity against rat C6 cells. The conditions noted are these: NIH3T3 cells versus C6 cells, read-out: Ratio IC50. The class given is toxicity, cell-based.
A short description of data set [2]: Selectivity index, ratio of IC50 for cytotoxicity against mouse NIH3T3 cells to IC50 for cytotoxicity against human HT-29 cells. The class given is toxicity, cell-based. The note with it: NIH3T3 cells versus HT-29 cells, read-out: Ratio IC50.
A short description of data set [3]: Selectivity index, ratio of IC50 for cytotoxicity against mouse NIH3T3 cells to IC50 for cytotoxicity against human A549 cells. The class given is toxicity, cell-based. The note with it: NIH3T3 cells versus A549 cells, read-out: Ratio IC50.
The next data set concerns NIH3T3. In words: Cytotoxicity against mouse NIH3T3 cells assessed as cell viability measured after 24 hrs by MTT assay. The class given is cell-based. The note with it: NIH3T3, 24 h.
Data set [4] in a line: Selectivity index, ratio of IC50 for cytotoxicity against mouse NIH3T3 cells to IC50 for cytotoxicity against human MCF7 cells. The class given is toxicity, cell-based. The conditions noted are these: NIH3T3 cells versus MCF7 cells, read-out: Ratio IC50.
The next data set deals with HT-29. As to the kind of experiment: Cytotoxicity against human HT-29 cells assessed as cell viability measured after 24 hrs by MTT assay. The class given is functional, cell-based. The conditions noted are these: HT-29, 24 h.
The nature of data set [5]: Selectivity index, ratio of IC50 for cytotoxicity against mouse NIH3T3 cells to IC50 for cytotoxicity against human HepG2 cells. The class given is toxicity, cell-based. The note with it: NIH3T3 cells versus HepG2 cells, read-out: Ratio IC50.

A word on the IC50: it is the concentration that gives 50% inhibition. As to `CN(C)CCCN1CCN(CC(=O)Nc2ccc(-c3nc4cc(F)ccc4o3)cc2)CC1`, the IC50 was found to be 9.18 µM with HepG2; 12.2 µM with A549; 14.8 µM in the data set on MCF7; 27.5 µM in the data set with C6; 21.9 µM in the data set on NIH3T3; 2.59 µM with HT-29. The selectivity ratio in data set [1] turned out to be 0.8; in data set [2] it was 8.46; in [3], 1.8; in data set [4], 1.49; in [5], 2.39.
Consider `Cc1ccc2oc(-c3ccc(NC(=O)CN4CCN(CCCN(C)C)CC4)c(C)c3)nc2c1`, for which the IC50 worked out at 5.65 µM with HepG2; 15.3 µM in the data set on A549; 19.8 µM in the data set on MCF7; 7.32 µM with C6; 13.2 µM in the data set with NIH3T3; 12.7 µM with HT-29. The selectivity ratio in data set [1] came out at 1.81; in data set [2] it was 1.04; in [3], 0.87; in data set [4], 0.67; in [5], 2.34.
With `O=C(CCl)Nc1ccc(-c2nc3cc(F)ccc3o2)cc1`, the IC50 in the data set with HepG2 came to 8.12 µM; in the data set with A549 it was 37.7 µM; in the data set with MCF7 it was 3.26 µM; in the data set on C6, 2.99 µM; with NIH3T3 it was 9.19 µM; with HT-29, 6.93 µM. Moreover, the selectivity ratio in data set [1] amounted to 3.07; in [2] it was 1.33; in [3], 0.24; in data set [4] it was 2.82; in [5], 1.13.
On to `Cc1cc(-c2nc3cc(F)ccc3o2)ccc1NC(=O)CCl`, for which the IC50 with HepG2 was 16.6 µM; in the data set with A549, 64.5 µM; in the data set with MCF7, above 100 µM; with C6, above 100 µM; in the data set with NIH3T3, 10.5 µM; in the data set on HT-29, 25.4 µM. Also, the selectivity ratio was below 0.11 in data set [1]; 0.41 in [2]; 0.16 in data set [3]; below 0.11 in data set [4]; 0.63 in data set [5].
As for `Cc1cc(-c2nc3cc(F)ccc3o2)ccc1NC(=O)CN1CCN(CCN(C)C)CC1`, the IC50 in the data set with HepG2 is 9.46 µM; with A549, 7.37 µM; with MCF7, 10.4 µM; in the data set with C6 it was 10.7 µM; with NIH3T3, 62.1 µM; in the data set with HT-29, 6.6 µM. Further, the selectivity ratio amounted to 5.8 in [1]; 9.41 in [2]; 8.42 in data set [3]; 5.96 in [4]; 6.56 in data set [5].
On to `Cc1cc(-c2nc3cc(Cl)ccc3o2)ccc1NC(=O)CN1CCN(CCN(C)C)CC1`, for which the IC50 in the data set with HepG2 was determined as 3.88 µM; in the data set on A549 it was 24.4 µM; in the data set with MCF7, 39.3 µM; with C6, 13.5 µM; in the data set on NIH3T3, 19.2 µM; in the data set with HT-29, 13.2 µM. For the same compound, the selectivity ratio stood at 1.43 in data set [1]; 1.45 in [2]; 0.79 in data set [3]; 0.49 in [4]; 4.95 in data set [5].
Turning to `Cc1cc(-c2nc3ccccc3o2)ccc1NC(=O)CCl`, the IC50 in the data set with HepG2 stood at 14.8 µM; with A549, 33.5 µM; in the data set on MCF7, 29.8 µM; in the data set on C6 it was 27.2 µM; in the data set on NIH3T3 it was 12.2 µM; with HT-29, 13.8 µM. In addition, the selectivity ratio came to 0.45 in data set [1]; 0.88 in data set [2]; 0.36 in data set [3]; 0.41 in data set [4]; 0.82 in data set [5].
For the compound `Cc1ccc2oc(-c3ccc(NC(=O)CCl)cc3)nc2c1`, the IC50 in the data set on HepG2 came to 21.5 µM; in the data set on A549, 36.1 µM; with MCF7 it was 4.62 µM; in the data set with C6, 4.04 µM; with NIH3T3, 11.6 µM; in the data set on HT-29, 15.2 µM. Moreover, the selectivity ratio in data set [1] turned out to be 2.86; in data set [2] it was 0.76; in [3], 0.32; in data set [4], 2.5; in data set [5], 0.54.
Turning to `Cc1ccc2oc(-c3ccc(NC(=O)CN4CCN(CCN(C)C)CC4)c(C)c3)nc2c1`, the IC50 with HepG2 was determined as 12.8 µM; with A549 it was 11 µM; in the data set with MCF7, 90.3 µM; in the data set on C6, 16.6 µM; in the data set on NIH3T3, 5.67 µM; with HT-29, 7.24 µM. The selectivity ratio in data set [1] amounted to 0.34; in data set [2], 0.78; in [3], 0.51; in data set [4], 0.06; in data set [5], 0.44.
`CN(C)CCCN1CCN(CC(=O)Nc2ccc(-c3nc4ccccc4o3)cc2)CC1`: the IC50 in the data set with HepG2 was found to be 9.5 µM; in the data set on A549 it was 18.3 µM; in the data set with MCF7 it was 23.4 µM; in the data set with C6 it was 42.3 µM; in the data set on NIH3T3, 16.7 µM; in the data set with HT-29, 10.6 µM. For the same compound, the selectivity ratio in data set [1] came out at 0.39; in [2] it was 1.57; in [3], 0.91; in data set [4], 0.71; in data set [5] it was 1.76.
Regarding `CN(C)CCN1CCN(CC(=O)Nc2ccc(-c3nc4ccccc4o3)cc2)CC1`, the IC50 is 16.3 µM with HepG2; 18.7 µM with A549; 59.4 µM in the data set with MCF7; 7.01 µM with C6; 35.8 µM in the data set on NIH3T3; 5.31 µM in the data set on HT-29. Moreover, the selectivity ratio in [1] stood at 5.11; in data set [2], 6.74; in [3] it was 1.92; in data set [4], 0.6; in [5], 2.2.
Take `Cc1cc(-c2nc3ccccc3o2)ccc1NC(=O)CN1CCN(CCN(C)C)CC1`: the IC50 with HepG2 came to 19.9 µM; in the data set on A549, 30.5 µM; in the data set with MCF7, 41.6 µM; in the data set with C6, 42.7 µM; in the data set with NIH3T3, 63.5 µM; with HT-29, 12.9 µM. Moreover, the selectivity ratio in data set [1] worked out at 1.49; in data set [2], 4.94; in data set [3], 2.09; in [4], 1.53; in data set [5], 3.2.
Consider `Cc1ccc2oc(-c3ccc(NC(=O)CCl)c(C)c3)nc2c1`, for which the IC50 with HepG2 amounted to 54.8 µM; in the data set on A549, 61.8 µM; in the data set on MCF7, 96.5 µM; in the data set on C6, 97.6 µM; in the data set with NIH3T3 it was 6.79 µM; in the data set with HT-29 it was 13.8 µM. Also, the selectivity ratio is 0.07 in data set [1]; 0.49 in data set [2]; 0.11 in [3]; 0.07 in data set [4]; 0.12 in data set [5].
For the compound `Cc1cc(-c2nc3cc(F)ccc3o2)ccc1NC(=O)CN1CCN(CCCN(C)C)CC1`, the IC50 with HepG2 was found to be 7.15 µM; in the data set on A549, 12.2 µM; in the data set with MCF7, 7.77 µM; with C6, 11.8 µM; with NIH3T3, 65.7 µM; with HT-29, 6.7 µM. Also, the selectivity ratio came to 5.59 in data set [1]; 9.8 in data set [2]; 5.39 in data set [3]; 8.45 in [4]; 9.19 in data set [5].
